Source: patent US20030109418A1, “Methods for identifying compounds for inhibition of neoplastic lesions, and pharmaceutical compositions containing such compounds” (priority 1999, published 2003)
Where two headings read alike, the source gives them in different places. Blank lines part the entries; values can stand above or below the molecule they belong to.

How the values were obtained:
[1] = system: cGMP PDE purified from human colon HT-29 cultured tumor cells; test: cGMP PDE inhibition assay; format: biochemical; settings: for PDE Inhibition: qualitative activity profile
[2] = system: HT-29 human colon carcinoma cell line; test: Growth inhibition, SRB assay, HT-29; format: cell-based; set-up: Growth Inhibition: key to the marks not given beside the values; settings: for IC50: HT-29 treated for 6 days, SRB assay, read-out: Growth inhibition (IC50); for Growth Inhibition: qualitative activity profile
HT-29 cells = test: Apoptosis and necrosis by morphology (acridine orange and ethidium bromide); format: cell-based, human; settings: HT-29 treated for 6 days
Source text: Apoptosis occurs naturally during normal tissue turnover and during embryonic development of organs and limbs. Apoptosis also is induced by cytotoxic T-lymphocytes and natural killer cells, by ionizing radiation and by certain chemotherapeutic drugs. Inappropriate regulation of apoptosis is thought to play an important role in many pathological conditions including cancer, AIDS, or Alzheimer's disease, etc. Compounds can be screened for induction of apoptosis using cultures of tumor cells maintained under conditions as described above. Treatment of cells with test compounds involves either pre- or post-confluent cultures and treatment for two to seven days at various concentrations. Apoptotic cells are measured in both the attached and “floating” compartments of the cultures. Both compartments are collected by removing the supernatant, trypsinizing the attached cells, and combining both preparations following a centrifugation wash step (10 minutes, 2000 rpm). The protocol for treating tumor cell cultures with sulindac and related compounds to obtain a significant amount of apoptosis has been described in the literature. (See, Piazza, G. A., et al., Cancer Research, 55:3110-16, 1995, which is incorporated herein by reference). The novel features include collecting both floating and attached cells, identification of the optimal treatment times and dose range for observing apoptosis, and identification of optimal cell culture conditions.
Following treatment with a compound, cultures can be assayed for apoptosis and necrosis by florescent microscopy following labeling with acridine orange and ethidium bromide. The method for measuring apoptotic cell number has previously been described by Duke & Cohen, “Morphological And Biochemical Assays Of Apoptosis,” Current Protocols In Immunology, Coligan et al., eds., 3.17.1-3.17.16 (1992, which is incorporated herein by reference).
For example, floating and attached cells can be collected by trypsinization and washed three times in PBS. Aliquots of cells can be centrifuged. The pellet can then be re-suspended in media and a dye mixture containing acridine orange and ethidium bromide prepared in PBS and mixed gently. The mixture can then be placed on a microscope slide and examined for morphological features of apoptosis.
Reference compounds and test compounds were analyzed for their novel PDE inhibitory activity in accordance with the protocols for the assay, supra. […] Apoptotic and necrotic cell death was determined previously (Duke and Cohen, In: Current Protocols in Immunology, 3.17.1-3.17.16, New York, John Wiley and Sons, 1992). […] All data were collected from the same experiment.
The apoptosis inducing activity for a series of phosphodiesterase inhibitors was determined. HT-29 cell were treated for 6 days with various inhibitors of phosphodiesterase. Apoptosis and necrosis were determined morphologically after acridine orange and ethidium bromide labeling in accordance with the assay described, supra.

[3] = target: T1, purified cyclooxygenase (Type 1, COX-I) from ram seminal vesicles (Ovis aries, UniProt P05979); test: COX inhibition assay, purified cyclooxygenase; format: biochemical; settings: for COX Inhibition: qualitative activity profile
T1 construct: using purified cyclooxygenase from ram seminal vesicles as described previously; tissue Cayman Chemical, Ann Arbor, Mich; (named in the general protocol only); host or cells: ram seminal vesicles
T1 sequence (P05979 25-600): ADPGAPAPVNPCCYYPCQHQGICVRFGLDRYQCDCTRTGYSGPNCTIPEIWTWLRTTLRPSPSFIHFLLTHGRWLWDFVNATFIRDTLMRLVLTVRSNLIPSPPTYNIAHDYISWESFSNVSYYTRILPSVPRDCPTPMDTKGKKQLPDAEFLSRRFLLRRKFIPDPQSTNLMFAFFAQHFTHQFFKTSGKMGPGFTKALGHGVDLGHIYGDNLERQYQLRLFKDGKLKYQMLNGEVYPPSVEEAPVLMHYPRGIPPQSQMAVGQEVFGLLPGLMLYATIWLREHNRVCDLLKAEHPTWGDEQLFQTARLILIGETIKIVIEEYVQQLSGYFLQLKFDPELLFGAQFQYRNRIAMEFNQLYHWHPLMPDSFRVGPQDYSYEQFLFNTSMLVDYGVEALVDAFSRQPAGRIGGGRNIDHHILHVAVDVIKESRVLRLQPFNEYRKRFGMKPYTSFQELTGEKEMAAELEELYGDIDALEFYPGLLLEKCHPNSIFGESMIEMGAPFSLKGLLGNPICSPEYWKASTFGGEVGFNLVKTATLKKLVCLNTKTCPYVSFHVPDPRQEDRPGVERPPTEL

[4] = system: premalignant lesions in mouse mammary gland organ culture; test: Mammary gland organ culture model; format: cell-based; settings: for Mammary Gland Organ Culture: qualitative activity profile; for mammary gland organ culture: key: −: Not active; +: Slightly active; ++: Moderately active; +++: Strongly active; ++++: Highly active
Source text: Test compounds identified by the above methods can be tested for antineoplastic activity by their ability to inhibit the incidence of pre-neoplastic lesions in a mammary gland organ culture system. This mouse mammary gland organ culture technique has been successfully used by other investigators to study the effects of known antineoplastic agents such as certain NSAIDs, retinoids, tamoxifen, selenium, and certain natural products, and is useful for validation of the screening method of the present invention.
For example, female BALB/c mice can be treated with a combination of estradiol and progesterone daily, in order to prime the glands to be responsive to hormones in vitro. The animals are sacrificed, and thoracic mammary glands are excised aseptically and incubated for ten days in growth media supplemented with insulin, prolactin, hydrocortisone, and aldosterone. DMBA (7,12-dimethylbenz(a)anthracene) is added to medium to induce the formation of premalignant lesions. Fully developed glands are then deprived of prolactin, hydrocortisone, and aldosterone, resulting in the regression of the glands but not the pre-malignant lesions.
The test compound is dissolved in DMSO and added to the culture media for the duration of the culture period. At the end of the culture period, the glands are fixed in 10% formalin, stained with alum carmine, and mounted on glass slides. The incidence of forming mammary lesions is the ratio of the glands with mammary lesions to […]. The incidence of mammary lesions in test compound treated glands is compared with that of the untreated glands.
The extent of the area occupied by the mammary lesions can be quantitated by projecting an image of the gland onto a digitation pad. The area covered by the gland is traced on the pad and considered as 100% of the area. The space covered by each of the non-regressed structures is also outlined on the digitization pad and quantitated by the computer.
Mammary gland organ culture experiment were performed as previously described (Mehta and Moon, Cancer Research, 46: 5832-5835, 1986). […] The data support the hypothesis that cyclooxygenase inhibition is not necessary for the anti-neoplastic properties of desired compounds.

[5] = system: HT-29 colon adenocarcinoma cells; test: Apoptosis by DNA fragmentation assay in HT-29; format: cell-based, human; settings: qualitative activity profile; note: key: −: Not active; +: Slightly active; ++: Moderately active; +++: Strongly active; ++++: Highly active
[6] = target: T2, cGMP binding sites of the GST-cGB-PDE5 protein (Homo sapiens, UniProt O76074); test: cGMP binding assay with GST-cGB-PDE5 fusion protein; settings: for competition with cGMP binding at high concentration: 100 μM competitor, cGMP 2 μM
T2 construct: made in house; host or cells: E. coli BL21 (DE3)

[7] = target: T3, PDE peak A (PDE5) from SW480 cells (Homo sapiens, UniProt O76074); test: cGMP hydrolysis inhibition, PDE peak A from SW480; format: biochemical
T3 construct: endogenous in cells; host or cells: SW480 colon cancer cells, DEAE-Trisacryl M fraction

[8] = system: cGMP and cAMP levels in HT-29 cells; test: Cyclic nucleotide levels in cultured cells by radioimmunoassay; format: cell-based, human; settings: HT-29 cells treated 30 minutes

IC50 [2]: 5 µM
Cyclooxygenase inhibitory activity, % Inhibition at 100 μM [3]: 94%
COX Inhibition [3]: ++++
Molecule: Clc1cccc(Nc2nnc(-c3ccccc3)c3ccccc23)c1 [MY5445, 1-(3-chloroanilino)-4-phenyphthalazine]
PDE Inhibition [1]: +++
Growth Inhibition [2]: +++
% Apoptosis (HT-29 cells): 80%
% Necrosis (HT-29 cells): 5%
Mammary Gland Organ Culture [4]: +
Apoptosis [5]: +++

competition with cGMP in binding of GST-cGB-PDE5 ([6]; 3H-cGMP 2 μM): did not compete with cGMP in binding
Molecule: Nc1ccn([C@@H]2O[C@@H]3COP(=O)(O)O[C@H]3[C@H]2O)c(=O)n1 [cCMP]

competition with cGMP in binding of GST-cGB-PDE5 ([6]; 3H-cGMP 2 μM): did not compete with cGMP in binding
Molecule: O=c1ccn([C@@H]2O[C@@H]3COP(=O)(O)O[C@H]3[C@H]2O)c(=O)[nH]1 [cUMP]

Molecule: CCCOc1ccccc1-c1nc2nn[nH]c2c(=O)[nH]1 [Zaprinast]
competition with cGMP in binding of GST-cGB-PDE5 ([6]; 3H-cGMP 2 μM): do not bind to the cGMP binding sites of PDE5

competition with cGMP binding at high concentration [6]: can partially compete
Molecule: Nc1nc2c(nc(Br)n2[C@@H]2O[C@@H]3COP(=O)(O)O[C@H]3[C@H]2O)c(=O)[nH]1 [Compound 8-bromo-cGMP]

Molecule: Nc1ncnc2c1ncn2[C@@H]1O[C@@H]2COP(=O)(O)O[C@H]2[C@H]1O [Cyclic AMP]
competition with cGMP in binding of GST-cGB-PDE5 [6]: did not compete with cGMP in binding

Ratio (IC50 Peak A/Peak B) [7]: <0.31
Molecule: CC1(C)C(=O)Nc2ccc(C3=NNC(=O)CC3)cc21 [Indolidan]

Molecule: COc1ccc(C2CNC(=O)C2)cc1OC1CCCC1 (centres unmarked) [Rolipram]
effect on cAMP levels [8]: increased cAMP

competition with cGMP in binding of GST-cGB-PDE5 ([6]; 3H-cGMP 2 μM): did not compete with cGMP in binding
Molecule: CCCCOC1C2OP(=O)(O)OCC2OC1n1cnc2c(=O)[nH]c(N)nc21 (centres unmarked) [2′-O-butyl-cGMP]

IC50 [2]: > 100 µM
Molecule: CC(C)Cn1c(=O)n(C)c(=O)c2[nH]cnc21 [IBMX]
% Apoptosis (HT-29 cells): 4%
% Necrosis (HT-29 cells): 13%

IC50 [2]: > 200 µM
Molecule: CCCCOc1cc(CC2CNC(=O)N2)ccc1OC (centres unmarked) [RO-20-1724]
% Apoptosis (HT-29 cells): 11%
% Necrosis (HT-29 cells): 2%

COX Inhibition [3]: −
Molecule: ribo-(E)-1-Triazolo-[2′, 3′: 1″, 3″]-1-(butan-1′, 4′-olido)-[3′, 4′: 1, 2]-6-flouro-2-methyl-3-(p-methylsulfonylbenzylidene)-indan [G]
PDE Inhibition [1]: −
Growth Inhibition [2]: +++
Mammary Gland Organ Culture [4]: +++
Apoptosis [5]: ++

competition with cGMP binding at high concentration [6]: can partially compete
Molecule: O=c1[nH]cnc2c1ncn2[C@@H]1O[C@@H]2COP(=O)(O)O[C@H]2[C@H]1O [Cyclic IMP]

Molecule: rac-(E)-1-(butan-1′, 4′-olido)-[3′, 4′: 1,2]-6-fluoro-2-methyl-3-(p-methylsulfonylbenzylidene)-1S-indanyl-glutathione)
PDE Inhibition [1]: −
Growth Inhibition [2]: ++
COX Inhibition [3]: −
Mammary Gland Organ Culture [4]: −
Apoptosis [5]: −

Cyclooxygenase inhibitory activity, % Inhibition at 100 μM [3]: <25%
COX Inhibition [3]: −
Molecule: CC(=O)NC(CSC12CC(=O)OC1(C)/C(=C/c1ccc(S(C)(=O)=O)cc1)c1ccc(F)cc12)C(=O)O (racemic) [D, rac-(E)-1-(butan-1′,4′-olido)-[3′,4′: 1,2]-6-fluoro-2-methyl-3-(p-methylsulfonylbenzylidene)-1S-indanyl-N-acetylcysteine]
PDE Inhibition [1]: −
Growth-inhibitory activity, % Inhibition at 100 μM [2]: 78%
Growth Inhibition [2]: ++
Mammary Gland Organ Culture [4]: −
Apoptosis [5]: −

IC50 [2]: > 200 µM
Molecule: COc1nc2c([nH]1)c(=O)n(C)c(=O)n2CC(C)C [8-methoxy-IBMX]
% Apoptosis (HT-29 cells): 2%
% Necrosis (HT-29 cells): 1%

competition with cGMP in binding of GST-cGB-PDE5 ([6]; 3H-cGMP 2 μM): did not compete with cGMP in binding
Molecule: CCCCOC1C2OP(=O)(O)OCC2OC1n1cnc2c(N)ncnc21 (centres unmarked) [2′-O-butyl-cAMP]

COX Inhibition [3]: −
Molecule: CC1=C(CC(=O)N(C2CCCCC2)C2CCCCC2)c2cc(F)ccc2/C1=C\c1ccc(S(C)(=O)=O)cc1 [F, (Z)-5-Fluoro-2-methyl-1-(p-methylsulfonylbenzylidene)-3-indenylacetamide, N,N′-dicyclohexyl]
PDE Inhibition [1]: −
Growth Inhibition [2]: ++
Mammary Gland Organ Culture [4]: −
Apoptosis [5]: +

Molecule: CC1=C(CC(=O)O)c2cc(F)ccc2/C1=C\c1ccc([S+](C)[O-])cc1 (centres unmarked) [sulindac]
inhibition of the formation of premalignant lesions ([4]; mammary gland organ culture): effectively inhibit the formation of premalignant lesions

Molecule: CC1=C(CC(=O)O)c2cc(F)ccc2/C1=C\c1ccc(Cl)cc1 [Compound C, (Z)-5-Fluoro-2-methyl-1-(p-chlorobenzylidene)-3-acetic acid]
cGMP PDE inhibitory activity, % Inhibition at 10 μM ([1]; 10 μM): <25%
Growth-inhibitory activity, % Inhibition at 100 μM [2]: 80%
